Data published in patent EP0255485A2, “Transdermal compositions” (priority 1986, dated 1988).
Where a name gives a salt, the structure may show the parent alone. Read-outs that look alike come from different tables or passages of the source.

How the values were obtained:
[1] = for P Px*: Px = permeability coefficient of the drug from propylene glycol solution; for Flux^+: expressed in terms of procaterol hydrochloride, concentration could not be measured
in vitro = conditions: mouse
[2] = Extrapolated delivery through human skin, assuming 1/5 the permeability of mouse skin; type: in vitro ADME
Description: The permeation of the compounds from the mixture of propylene glycol triacetin was negligible. The concentration of each analgesic can be increased to 3% or 4% in the donor solution and corresponding increases in flux can be expected. […] A usual dose for oxymorphone and hydromorphone is about 6 to 10 mg per day in humans.
Assuming the permeability of human skin to be 1/5 that of mouse skin, a daily flux of 0.68 mg can be achieved in man. The maximum daily dose in man is approximated to be 0.2 mg.

[3] = Vehicle LA:TA:PG 20:50:30, Conc'n. 21.57 mg/ml
[4] = LA:PG:TA 5:30:65, 0.5 wt % analgesic, Conc. 5.5 mg/ml
[5] = LA:PG:TA 10:30:60, 0.5 wt % analgesic, Conc. 5.4 mg/ml
[6] = LA:PG:TA 20:30:50, 0.5 wt % analgesic, Conc. 5.3 mg/ml

Question: Which results are given for CC1CC(=O)NN=C1c1ccc(-n2ccnc2)cc1 (stereo not drawn) [Compound I Base]?
Answer: Lag Time ([1]; 0 % Linoleic Acid in propylene glycol, Conc'n. 26.38 mg/ml): 6.2 h; Flux ([1]; 0 % Linoleic Acid in propylene glycol, Conc'n. 26.38 mg/ml, expressed as hydrochloride salt): 0.4 ug/cm^2/h; P Px* ([1]; 0 % Linoleic Acid in propylene glycol): 1; Lag Time ([1]; 10 % Linoleic Acid in propylene glycol, Conc'n. 43 mg/ml): 1.75 h; Flux ([1]; 10 % Linoleic Acid in propylene glycol, Conc'n. 43 mg/ml, expressed as hydrochloride salt): 492 ug/cm^2/h; P Px* ([1]; 10 % Linoleic Acid in propylene glycol): 755; Lag Time ([1]; 40 % Linoleic Acid in propylene glycol, Conc'n. 43 mg/ml): 1.45 h; Flux ([1]; 40 % Linoleic Acid in propylene glycol, Conc'n. 43 mg/ml, expressed as hydrochloride salt): 337.3 ug/cm^2/h; P Px* ([1]; 40 % Linoleic Acid in propylene glycol): 517; Lag Time ([1]; 80 % Linoleic Acid in propylene glycol, Conc'n. 43 mg/ml): 1.29 h; Flux ([1]; 80 % Linoleic Acid in propylene glycol, Conc'n. 43 mg/ml, expressed as hydrochloride salt): 148.5 ug/cm^2/h; P Px* ([1]; 80 % Linoleic Acid in propylene glycol): 227; Lag Time ([1]; 100 % Linoleic Acid, Conc'n. 31.5 mg/ml): 5.35 h; Flux ([1]; 100 % Linoleic Acid, Conc'n. 31.5 mg/ml, expressed as hydrochloride salt): 24.5 ug/cm^2/h; P Px* ([1]; 100 % Linoleic Acid): 51; Flux [1, 3]: 130.14 ug/cm^2/h; Lag Time [1, 3]: 1.91 h; P Px* ([1]; Vehicle LA:TA:PG 20:50:30): 400; Flux ([1]; Vehicle LA:TG 20:80 (TG = tetraglycol), Conc'n. 20.09 mg/ml): 186.69 ug/cm^2/h; Lag Time ([1]; Vehicle LA:TG 20:80, Conc'n. 20.09 mg/ml): 5.58 h; P Px* ([1]; Vehicle LA:TG 20:80): 614; Papp (in vitro; Permeability Coefficient (P), 0 % Linoleic Acid in propylene glycol, Conc'n. 26.38 mg/ml): 0.0042 ×10⁻⁶ cm/s; Papp (in vitro; Permeability Coefficient (P), 10 % Linoleic Acid in propylene glycol, Conc'n. 43 mg/ml): 3.18 ×10⁻⁶ cm/s; Papp (in vitro; Permeability Coefficient (P), 40 % Linoleic Acid in propylene glycol, Conc'n. 43 mg/ml): 2.18 ×10⁻⁶ cm/s; Papp (in vitro; Permeability Coefficient (P), 80 % Linoleic Acid in propylene glycol, Conc'n. 43 mg/ml): 0.96 ×10⁻⁶ cm/s; Papp (in vitro; Permeability Coefficient (P), 100 % Linoleic Acid, Conc'n. 31.5 mg/ml): 0.22 ×10⁻⁶ cm/s; Papp (in vitro; Permeability Coefficient (P), Vehicle LA:TA:PG 20:50:30, Conc'n. 21.57 mg/ml): 1.68 ×10⁻⁶ cm/s; Papp (in vitro; Permeability Coefficient (P), Vehicle LA:TG 20:80, Conc'n. 20.09 mg/ml): 2.58 ×10⁻⁶ cm/s; Papp (in vitro; permeability coefficient): 7.6 ×10⁻⁶ cm/s

Question: Which results are given for CN1CC[C@]23c4c5ccc(O)c4O[C@H]2C(=O)CC[C@@]3(O)[C@H]1C5 [OX, Oxymorphone]?
Answer: delivered from a 10 cm² patch in humans ([2]; loading concentration increased to 2%, four-fold increase in flux expected): about 12.8 mg/day; delivery from a 10 cm² patch through human skin ([2]; loading concentration of 0.5%, assuming 1/5 the permeability): about 3.2 mg/day; Flux [1, 4]: 40.0 ug/cm^2/hr; Lag Time [1, 4]: 7.6 h; Flux [1, 5]: 51.5 ug/cm^2/hr; Lag Time [1, 5]: 4.1 h; Flux [1, 6]: 66.6 ug/cm^2/hr; Lag Time [1, 6]: 3.5 h; delivery from a 10 cm² patch through hairless mouse skin ([1]; loading concentration of 0.5%, equivalent of flux 66.6 ug/cm²/hr): about 16 mg/day; Papp (in vitro; PX10^6, LA:PG:TA 5:30:65, 0.5 wt % analgesic, Conc. 5.5 mg/ml): 2 ×10⁻⁶ cm/s; Papp (in vitro; PX10^6, LA:PG:TA 10:30:60, 0.5 wt % analgesic, Conc. 5.4 mg/ml): 2.7 ×10⁻⁶ cm/s; Papp (in vitro; PX10^6, LA:PG:TA 20:30:50, 0.5 wt % analgesic, Conc. 5.3 mg/ml): 3.5 ×10⁻⁶ cm/s

Question: For CCC(NC(C)C)C(O)c1ccc(O)c2[nH]c(=O)ccc12 (stereo not drawn) [Procaterol Hydrochloride], which “daily flux in man” value [2] is on record?
Answer: 0.68 mg

Question: What about the “Lag Time” value ([1]; Solvent System LA:PG:TA 20:30:50, approximate concentration 5 mg/ml) of the same molecule?
Answer: 4.0 h

Question: What about the Flux ([1]; Solvent System LA:PG:TA 20:30:50, approximate concentration 5 mg/ml, Hydrochloride) of the same molecule?
Answer: 14 ug/cm^2/h

Question: And the Flux ([1]; Solvent System LA:PG:TA 20:30:50, approximate concentration 5 mg/ml, listed as procaterol hydrochloride, Hydrochloride)?
Answer: about 14 ug/cm^2/h

Question: What about the flux value ([1]; formulation containing LA:PG:TA (20:30:50)) of the same molecule?
Answer: 3.36 mg/day/10 cm²

Question: What about the Papp (in vitro; P, Solvent System LA:PG:TA 20:30:50, approximate concentration 5 mg/ml) of the same molecule?
Answer: 0.77 ×10⁻⁶ cm/s

Question: Which Lag Time ([1]; Ratio of LA:TA:PG 5:85:10) does the source give for CCC(NC(C)C)C(O)c1ccc(O)c2[nH]c(=O)ccc12 (stereo not drawn) [Procaterol] here?
Answer: 5.5 h

Question: And the “Flux^+” value ([1]; Ratio of LA:TA:PG 5:85:10)?
Answer: 23.1 ug/cm^2/h

Question: What about the Lag Time ([1]; Ratio of LA:TA:PG 10:80:10) of the same molecule?
Answer: 4.8 h

Question: And the “Flux^+” value ([1]; Ratio of LA:TA:PG 10:80:10)?
Answer: 44.2 ug/cm^2/h

Question: What about the Lag Time ([1]; Ratio of LA:TA:PG 15:75:10) of the same molecule?
Answer: 4.05 h

Question: What about the “Flux^+” value ([1]; Ratio of LA:TA:PG 15:75:10) of the same molecule?
Answer: 53.2 ug/cm^2/h

Question: And the Lag Time ([1]; Ratio of LA:TA:PG 20:50:30)?
Answer: 4.4 h

Question: And the “Flux^+” value ([1]; Ratio of LA:TA:PG 20:50:30)?
Answer: 56.3 ug/cm^2/h

Question: What about the Lag Time ([1]; Ratio of LA:TA:PG 20:75:5) of the same molecule?
Answer: 4.8 h

Question: And the “Flux^+” value ([1]; Ratio of LA:TA:PG 20:75:5)?
Answer: 33.9 ug/cm^2/h

Question: What about the “Lag Time” value ([1]; Vehicle Ethyl Linoleate:PG:TA 10:5:85, Drug Conc. 0.855 mg/ml) of the same molecule?
Answer: 6 h

Question: And the Flux ([1]; Vehicle Ethyl Linoleate:PG:TA 10:5:85, Drug Conc. 0.855 mg/ml, expressed as procaterol hydrochloride)?
Answer: 9.60 ug/cm^2/h

Question: And the “Lag Time” value ([1]; Vehicle Ethyl Linoleate:TG 10:90, Drug Conc. 12.29 mg/ml)?
Answer: 8 h

Question: What about the Flux ([1]; Vehicle Ethyl Linoleate:TG 10:90, Drug Conc. 12.29 mg/ml, expressed as procaterol hydrochloride) of the same molecule?
Answer: 36.27 ug/cm^2/h

Question: And the “Lag Time” value ([1]; Vehicle LA:TA:PG 20:50:30, Procaterol Conc. 40 mg/ml)?
Answer: 1.26 h

Question: And the Flux ([1]; Vehicle LA:TA:PG 20:50:30, Procaterol Conc. 40 mg/ml, expressed as hydrochloride salt)?
Answer: 158.6 ug/cm^2/h

Question: And the “Lag Time” value ([1]; Vehicle LA:TEC:PG 10:70:20, Drug Conc. 23.03 mg/ml)?
Answer: 14.7 h

Question: And the “Flux*” value ([1]; Vehicle LA:TEC:PG 10:70:20, Drug Conc. 23.03 mg/ml, expressed as hydrochloride salt)?
Answer: 33.5 ug/cm^2/h

Question: And the “Lag Time” value ([1]; Vehicle LA:TEC:PG 10:80:10, Drug Conc. 16.9 mg/ml)?
Answer: 14.7 h

Question: And the “Flux*” value ([1]; Vehicle LA:TEC:PG 10:80:10, Drug Conc. 16.9 mg/ml, expressed as hydrochloride salt)?
Answer: 32.0 ug/cm^2/h

Question: What about the “Lag Time” value ([1]; Vehicle LA:TEC:PG 20:50:30, Drug Conc. 4.32 mg/ml) of the same molecule?
Answer: 11.2 h

Question: What about the “Flux*” value ([1]; Vehicle LA:TEC:PG 20:50:30, Drug Conc. 4.32 mg/ml, expressed as hydrochloride salt) of the same molecule?
Answer: 8.5 ug/cm^2/h

Question: And the “Lag Time” value ([1]; Vehicle LA:TEC:PG 20:50:30, Drug Conc. 44.7 mg/ml)?
Answer: 7.3 h

Question: And the “Flux*” value ([1]; Vehicle LA:TEC:PG 20:50:30, Drug Conc. 44.7 mg/ml, expressed as hydrochloride salt)?
Answer: 65.8 ug/cm^2/h

Question: What about the “Lag Time” value ([1]; Vehicle LA:TEC:PG 20:60:20, Drug Conc. 19.35 mg/ml) of the same molecule?
Answer: 4.9 h

Question: And the “Flux*” value ([1]; Vehicle LA:TEC:PG 20:60:20, Drug Conc. 19.35 mg/ml, expressed as hydrochloride salt)?
Answer: 46.0 ug/cm^2/h

Question: What about the Flux ([1]; Vehicle LNA:PG:TA 20:15:65 (LNA = Linolenic Acid), Drug Conc. 8.15 mg/ml, expressed as procaterol hydrochloride) of the same molecule?
Answer: 76.27 ug/cm^2/h

Question: What about the “Lag Time” value ([1]; Vehicle LNA:PG:TA 20:15:65, Drug Conc. 8.15 mg/ml) of the same molecule?
Answer: 2 h

Question: What about the “Lag Time” value ([1]; Vehicle Oleic Acid:PG:TA 20:30:50, Drug Conc. 15.89 mg/ml) of the same molecule?
Answer: 1.8 h

Question: And the Flux ([1]; Vehicle Oleic Acid:PG:TA 20:30:50, Drug Conc. 15.89 mg/ml, expressed as procaterol hydrochloride)?
Answer: 171.76 ug/cm^2/h

Question: And the Papp (in vitro; P, Vehicle Ethyl Linoleate:PG:TA 10:5:85, Drug Conc. 0.855 mg/ml)?
Answer: 3.12 ×10⁻⁶ cm/s

Question: What about the Papp (in vitro; P, Vehicle Ethyl Linoleate:TG 10:90, Drug Conc. 12.29 mg/ml) of the same molecule?
Answer: 0.82 ×10⁻⁶ cm/s

Question: And the Papp (in vitro; P, Vehicle LA:TA:PG 20:50:30, Procaterol Conc. 40 mg/ml)?
Answer: 1.1 ×10⁻⁶ cm/s

Question: What about the Papp (in vitro; P, Vehicle LA:TEC:PG 10:70:20, Drug Conc. 23.03 mg/ml) of the same molecule?
Answer: 0.404 ×10⁻⁶ cm/s

Question: And the Papp (in vitro; P, Vehicle LA:TEC:PG 10:80:10, Drug Conc. 16.9 mg/ml)?
Answer: 0.526 ×10⁻⁶ cm/s

Question: And the Papp (in vitro; P, Vehicle LA:TEC:PG 20:50:30, Drug Conc. 4.32 mg/ml)?
Answer: 0.547 ×10⁻⁶ cm/s

Question: And the Papp (in vitro; P, Vehicle LA:TEC:PG 20:50:30, Drug Conc. 44.7 mg/ml)?
Answer: 0.41 ×10⁻⁶ cm/s

Question: And the Papp (in vitro; P, Vehicle LA:TEC:PG 20:60:20, Drug Conc. 19.35 mg/ml)?
Answer: 0.66 ×10⁻⁶ cm/s

Question: And the Papp (in vitro; P, Vehicle LNA:PG:TA 20:15:65, Drug Conc. 8.15 mg/ml)?
Answer: 2.6 ×10⁻⁶ cm/s

Question: What about the Papp (in vitro; P, Vehicle Oleic Acid:PG:TA 20:30:50, Drug Conc. 15.89 mg/ml) of the same molecule?
Answer: 3 ×10⁻⁶ cm/s
